In series [1] the test system is Lewis Lung carcinoma (LLC). Kind of series: spontaneous LLC lung metastasis model after primary tumor resection (survival). Format: in vivo, mice. The following applies: for mimicked the action of ketorolac in prolonging survival after primary LLC tumor resection: FR122047 20, TFAP 30, SC-560 30, indomethacin 3 mg/kg i.p., celecoxib 60 mg/kg oral gavage, FIG. 1B. The text has this: Doses were selected based on previous publications by the present inventors and others, and/or by analogy to the human dose.

The conditions of series [2]: used alone; single subcutaneous injection before the resection; cited from earlier work.
A further series concerns MMTV-PyMT breast tumor. Kind of series: surgery-stimulated (laparotomy) spontaneous tumor model, genetically engineered murine breast tumor model. The note with it: FIG. 1C. Format: in vivo.
Another series relates to E0771 breast cancer. Nature of the series: spontaneous E0771 breast cancer metastasis model after primary tumor resection. Format: in vivo. The note with it: pre-operative; FIG. 1D.
Series [3] concerns B16F10 melanoma. Kind of series: laparotomy-stimulated primary tumor dormancy escape, B16F10. The format is in vivo. The following applies: pre-surgical administration; 1×10^3 cells; FIG. 2A. The text has this: (§1) (A-C) Surgery (i.e. laparotomy) stimulated primary tumor dormancy escape in a B16F10 melanoma (1×10^3 cells), Lewis lung carcinoma (LLC 1×10^4 cells), and EL4 lymphoma (1×10^4 cells). Images show representative tumors on Day 35 post-injection; Scale bar, 1 cm.
(§2) Surgery (i.e., laparotomy, which is a surgical procedure involving a large incision through the abdominal wall to gain access into the abdominal cavity, also known as a celiotomy) stimulated primary tumor dormancy escape in a B16F10 melanoma (1×10^3 cells, see Kalpainen et al., PLoS One. 2007 Feb. 28; 2(2):e260 and Panigraphy et al., J Clin Invest. 2012 January; 122(1):178-91; FIG. 2A), Lewis lung carcinoma (LLC 1×10^4 cells, FIG. 2B), and EL4 lymphoma (1×10^4 cells, FIG. 2C).

In series [4] the test system is Lewis lung carcinoma (LLC). Kind of series: laparotomy-stimulated primary tumor dormancy escape, LLC. Format: in vivo. The note with it: pre-surgical administration; 1×10^4 cells; FIG. 2B.
Text: as §1, §2

The test system of the next series is EL4 lymphoma. Kind of series: laparotomy-stimulated primary tumor dormancy escape, EL4. Format: in vivo. The note with it: pre-surgical administration; 1×10^4 cells; FIG. 2C.
Text: as §1, §2

Another series has as its system T241 fibrosarcoma. Kind of series: liver biopsy-stimulated lung metastasis post primary tumor resection. The note with it: pre-surgical administration; FIG. 2D. Format: in vivo. The text has this:
(D) Liver biopsy stimulated lung metastasis post primary tumor resection (T241 fibrosarcoma).
In addition, liver biopsy alone stimulated lung metastasis post primary tumor resection in a T241 fibrosarcoma model (O'Reilly et al., Cell. 1994 Oct. 21; 79(2):315-28 and Panigraphy et al., J Clin Invest. 2012 January; 122(1):178-91).

The subject of series [5] is LLC. Nature of the series: LLC tumor resection in nude athymic mice. The format is in vivo, nude athymic C57BL/6 mice. The note with it: administered prior to LLC tumor resection; FIG. 3A. The method, then:
To determine whether the effects of Ketorolac were due to actions on the immune system, the effects of ketorolac administered prior to LLC tumor resection was determined in nude athymic C57BL/6 mice, SCID mice, and Rag1 KO Mice.

The test system of a further series is human lung tumor (H460). Nature of the series: human lung tumor primary tumor resection in SCID mice. The format is in vivo. The following applies: FIG. 3B.
In another series the test system is B16F10. Kind of series: laparotomy-induced tumor dormancy escape in Rag1 KO mice. The format is in vivo. The note with it: B16F10, 1×10^3; FIG. 3C.
The test system of series [6] is LLC. Nature of the series: second tumor challenge 200 days after LLC tumor resection. The format is in vivo, immunocompetent mice (C57BL6). The following applies: 200 days post LLC tumor resection, ketorolac preoperatively; FIG. 4A. The method, then: To determine whether perioperative COX-1 inhibition produces a durable immune response to the cancer, immunocompetent mice (C57BL6) at 200 days after undergoing LLC tumor resection during which they were administered ketorolac preoperatively, were given a second tumor challenge with the same tumor types (LLC).

Series [7] relates to B16F10 melanoma. Nature of the series: third tumor challenge with a different tumor-type. The format is in vivo, immunocompetent mice (C57BL6). The following applies: same mice, FIG. 4A.
For series [8], the system named is LLC. Nature of the series: LLC tumor resection in WT and COX-2 KO mice (metastasis). The format is in vivo. The note with it: administered prior to surgery, FIG. 4B.
The next series has as its system LLC tumor cells. Nature of the series: Hematoxylin & Eosin analysis of lungs after LLC tumor resection. The following applies: 240 days post-surgery; i.p. 7.5 mg/kg 2 hours prior to surgery; abundant LLC tumor cells at Day 0. The format is in vivo, mice. The text has this: Representative micrographs of 4 different mice per group (total of 10 mice/group).
A further series has as its system prostate cancer. The note with it: after radical prostatectomy for prostate cancer; retrospective; cited from earlier work.
For series [9] the following is noted: human, in vivo; cited from earlier work.
The conditions of series [10]: in vivo; cited from earlier work.

For `COc1ccc(-c2nc(C(=O)N3CCN(C)CC3)sc2-c2ccc(OC)cc2)cc1.Cl` [FR122047, 1-[[4,5-bis(4-Methoxyphenyl)-2-thiazolyl]carbonyl]-4-methylpiperazine hydrochloride], the “mimicked the action of ketorolac in prolonging survival after primary LLC tumor resection” value in [1] is recorded as “mimicked the action of ketorolac”.

On to `Nc1ccc(NC(=O)c2ccc(C(F)(F)F)cc2)nc1` [TFAP, N-(5-amino-2-pyridinyl)-4-trifluoromethylbenzamide], for which the “mimicked the action of ketorolac in prolonging survival after primary LLC tumor resection” value in [1] is listed as “mimicked the action of ketorolac”.

On to `CCc1cccc2c3c([nH]c12)C(CC)(CC(=O)O)OCC3` (centres unmarked) [etodolac], for which the spontaneous postoperative metastasis result in [2] was “did not prevent spontaneous postoperative metastasis”.

As for `O=C(c1ccccc1)c1ccc2n1CCC2C(=O)O` (centres unmarked) [ketorolac, ketorolac tromethamine], the “tumor micrometastasis by immunohistochemistry” value in [1] (180 to 200 days, micrometastasis present on day of tumor resection) is “no evidence of tumor micrometastasis”. For the same compound, the “survival after primary tumor resection” value in series [1] (pre-operative (2 hrs prior to surgery), ketorolac 7.5 mg/kg I.P., celecoxib 30 mg/kg bid po, FIG. 1A) was “prolonged survival”; in the series with E0771 breast cancer it was “prolonged survival”. Also, the “"cured" (long term survival)” value in series [1] (pre-operative, syngeneic LLC lung cancer model) is “approximately 50 % of mice”. In addition, the survival result in the series with MMTV-PyMT breast tumor is recorded as “prolonged survival”. The “surgery-induced tumor dormancy escape” value (with B16F10 melanoma [3]; in series [4]; in the series on EL4 lymphoma) was “inhibited surgery-induced tumor dormancy escape” throughout. Moreover, in the series on T241 fibrosarcoma, the biopsy-stimulated lung metastasis entry is “inhibited this biopsy-stimulated lung metastasis”. For the same compound, the anti-metastatic activity result in the series on LLC [5] is “did not have anti-metastatic activity”. The “metastases after primary tumor resection” value in the series on human lung tumor (H460) was “did not inhibit metastases”. The “laparotomy-induced tumor dormancy escape” value with B16F10 is “did not inhibit laparotomy-induced tumor dormancy escape”. Also, the “response to second tumor challenge (LLC)” value with LLC [6] was “resisted a second tumor challenge”. Moreover, in the series with B16F10 melanoma [7], the “response to third tumor challenge (B16F10 melanoma)” value is “exhibited rapid tumor growth”. Also, the tumor metastasis entry in the series with LLC [8] (COX-2 knockout (KO) mice) and in the series on LLC [8] (WT mice) was “prevented tumor metastasis” throughout. Moreover, the “tumor cells in lungs (Hematoxylin & Eosin)” value with LLC tumor cells is recorded as “no tumor cells were detectable”. In addition, in the series with prostate cancer, the “benefit of perioperative use” value is “no benefit”. The major side effect result in series [9] is listed as “increased bleeding time”.

`CN1CC[C@]23c4c5ccc(O)c4O[C@H]2[C@@H](O)C=C[C@H]3[C@H]1C5` [morphine]: the “effect on angiogenesis, tumor cell proliferation, primary tumor growth and metastasis” value in series [10] is “stimulates angiogenesis, tumor cell proliferation, primary tumor growth and metastasis”.

The values are drawn from patent publication US20190290614A1, “Methods for Reducing Recurrence of Tumors” (Beth Israel Deaconess Medical Center, Inc., priority 2016, published 2019).
